Consider 24 compounds from patent publication US9133204B2, “5-membered heterocyclic amides and related compounds” (H. Lundbeck A/S, priority 2007, dated 2015).

Usually IC50 stands for the concentration that inhibits the measured activity by half.

The assay deals with T1, P2X7 receptor (Homo sapiens, UniProt Q99572).
T1 construct: host or cells: SH-SY5Y
T1 sequence (Q99572 1-595): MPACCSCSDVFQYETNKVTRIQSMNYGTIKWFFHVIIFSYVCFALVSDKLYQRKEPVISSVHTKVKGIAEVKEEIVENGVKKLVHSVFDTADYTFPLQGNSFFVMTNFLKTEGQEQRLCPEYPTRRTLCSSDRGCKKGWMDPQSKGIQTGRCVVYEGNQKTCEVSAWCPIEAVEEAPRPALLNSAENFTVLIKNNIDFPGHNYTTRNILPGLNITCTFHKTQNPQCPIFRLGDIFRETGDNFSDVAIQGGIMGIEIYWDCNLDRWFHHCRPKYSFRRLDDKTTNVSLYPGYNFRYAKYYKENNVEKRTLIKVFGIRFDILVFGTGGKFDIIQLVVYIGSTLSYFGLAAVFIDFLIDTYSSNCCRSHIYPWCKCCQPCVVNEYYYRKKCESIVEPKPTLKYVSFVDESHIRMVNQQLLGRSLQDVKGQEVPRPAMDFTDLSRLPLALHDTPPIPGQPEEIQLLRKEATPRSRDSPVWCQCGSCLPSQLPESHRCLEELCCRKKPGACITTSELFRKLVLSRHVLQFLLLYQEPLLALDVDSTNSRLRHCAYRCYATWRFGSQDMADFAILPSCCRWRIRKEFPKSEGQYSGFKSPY
Put plainly: High throughput P2X7 calcium mobilization assay (Example 4A). The following applies: SH-SY5Y cells; 50% decrease in fluorescence response of cells exposed to 80 μM BzATP; Table I. Format: cell-based. In a few lines: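 Calcium mobilization read by FLIPR as peak fluorescence over 2 min after adding BzATP to a final 80 μM (about EC50). Beforehand, Fluo-4 AM-loaded SH-SY5Y cells sat 1 h at room temperature with compound at 1–2500 nM in pH 7.4 sucrose/HEPES buffer; signal minus no-agonist wells.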
In general terms: Calcium flux is commonly read through the fluorescence of an indicator in the cells.
In the case of `COc1ccc(-n2cc(C(=O)NCC34CC5CC(CC(C5)C3)C4)c(C(C)C)n2)nn1` [Compound 143, N-(adamantan-1-ylmethyl)-3-isopropyl-1-(6-methoxypyridazin-3-yl)-1H-pyrazole-4-carboxamide], the IC50 was at most 2 µM.
`Nc1nc(-n2cc(C(=O)NCC3(N4CCOCC4)CCCCC3)c(C(F)(F)F)n2)ncc1F` [Compound 144, 1-(4-amino-5-fluoropyrimidin-2-yl)-N-[(1-morpholin-4-ylcyclohexyl)methyl]-3-(trifluoromethyl)-1H-pyrazole-4-carboxamide]: the IC50 is at most 2 µM.
For `O=C(NCC12CC3CC(CC(C3)C1)C2)c1cn(-c2ncccn2)nc1C1CC1` [Compound 145, N-(adamantan-1-ylmethyl)-3-cyclopropyl-1-pyrimidin-2-yl-1H-pyrazole-4-carboxamide], the IC50 is at most 2 µM.
Turning to `Nc1ccnc(-n2cc(C(=O)NCC34CC5CC(CC(C5)C3)C4)c(C3CC3)n2)n1` [Compound 146, N-(adamantan-1-ylmethyl)-1-(4-aminopyrimidin-2-yl)-3-cyclopropyl-1H-pyrazole-4-carboxamide], the IC50 is at most 2 µM.
`Nc1nccnc1-n1cc(C(=O)NCC23CC4CC(CC(C4)C2)C3)c(C(F)(F)F)n1` [Compound 147, N-(adamantan-1-ylmethyl)-1-(3-aminopyrazin-2-yl)-3-(trifluoromethyl)-1H-pyrazole-4-carboxamide]: the IC50 was at most 2 µM.
To `Nc1cnc(-n2cc(C(=O)NCC34CC5CC(CC(C5)C3)C4)c(C(F)(F)F)n2)cn1` [Compound 148, N-(adamantan-1-ylmethyl)-1-(5-aminopyrazin-2-yl)-3-(trifluoromethyl)-1H-pyrazole-4-carboxamide] belongs at most 2 µM; to `CC(CNC(=O)c1cn(-c2ncc(F)c(N)n2)nc1C(F)(F)F)c1ccc(Cl)cc1` (stereo not drawn) [Compound 149, 1-(4-amino-5-fluoropyrimidin-2-yl)-N-[2-(4-chlorophenyl)propyl]-3-(trifluoromethyl)-1H-pyrazole-4-carboxamide], at most 2 µM; to `CCCC(CNC(=O)c1cn(-c2ncc(F)c(N)n2)nc1C(F)(F)F)c1ccc(Cl)cc1` (stereo not drawn) [Compound 150, 1-(4-amino-5-fluoropyrimidin-2-yl)-N-[2-(4-chlorophenyl)pentyl]-3-(trifluoromethyl)-1H-pyrazole-4-carboxamide], at most 2 µM.
Regarding `O=C(NCC1(c2cccnc2)CCCCC1)c1cn(-c2ncccn2)nc1C(F)(F)F` [Compound 151, N-[(1-pyridin-3-ylcyclohexyl)methyl]-1-pyrimidin-2-yl-3-(trifluoromethyl)-1H-pyrazole-4-carboxamide], the IC50 was at most 2 µM.
To `O=C(NCC1(c2cccnc2)CCCCC1)c1cn(-c2ncc(F)cn2)nc1C(F)(F)F` [Compound 152, 1-(5-fluoropyrimidin-2-yl)-N-[(1-pyridin-3-ylcyclohexyl)methyl]-3-(trifluoromethyl)-1H-pyrazole-4-carboxamide] belongs at most 2 µM; to `O=C(NCC12CC3CC(CC(C3)C1)C2)c1cn(-c2cc(=O)[nH]cn2)nc1C(F)(F)F` [Compound 153, N-(adamantan-1-ylmethyl)-1-(6-oxo-1,6-dihydropyrimidin-4-yl)-3-(trifluoromethyl)-1H-pyrazole-4-carboxamide], at most 2 µM.
For `Nc1nc(-n2cc(C(=O)NCC3(O)CCCCCC3)c(C(F)(F)F)n2)ncc1F` [Compound 154, 1-(4-amino-5-fluoropyrimidin-2-yl)-N-[(1-hydroxycycloheptyl)methyl]-3-(trifluoromethyl)-1H-pyrazole-4-carboxamide], the IC50 was at most 2 µM.
To `Nc1ccnc(-n2cc(C(=O)NCC3(c4cccnc4)CCCCC3)c(C(F)(F)F)n2)n1` [Compound 155, 1-(4-aminopyrimidin-2-yl)-N-[(1-pyridin-3-ylcyclohexyl)methyl]-3-(trifluoromethyl)-1H-pyrazole-4-carboxamide] belongs at most 2 µM; to `Cc1cnc(-n2cc(C(=O)NCC3(c4cccnc4)CCCCC3)c(C(F)(F)F)n2)nc1N` [Compound 156, 1-(4-amino-5-methylpyrimidin-2-yl)-N-[(1-pyridin-3-ylcyclohexyl)methyl]-3-(trifluoromethyl)-1H-pyrazole-4-carboxamide], at most 2 µM.
Take `Nc1nccnc1-n1cc(C(=O)NCC2(c3cccnc3)CCCCC2)c(C(F)(F)F)n1` [Compound 157, 1-(3-aminopyrazin-2-yl)-N-[(1-pyridin-3-ylcyclohexyl)methyl]-3-(trifluoromethyl)-1H-pyrazole-4-carboxamide]: the IC50 was at most 2 µM.
To `Cc1ccc(C2(CNC(=O)c3sc(-c4ncccn4)nc3C(F)(F)F)CCCCC2)cn1` [Compound 158, N-{[1-(6-methylpyridin-3-yl)cyclohexyl]methyl}-2-pyrimidin-2-yl-4-(trifluoromethyl)-1,3-thiazole-5-carboxamide] belongs at most 2 µM; to `O=C(NCC1(N2CCOCC2)CCCCC1)c1sc(-c2ncccn2)nc1C(F)(F)F` [Compound 159, N-[(1-morpholin-4-ylcyclohexyl)methyl]-2-pyrimidin-2-yl-4-(trifluoromethyl)-1,3-thiazole-5-carboxamide], at most 2 µM.
To `CCCC(CNC(=O)c1sc(-c2ncccn2)nc1C(F)(F)F)c1ccc(Cl)cc1` (stereo not drawn) [Compound 160, N-[2-(4-chlorophenyl)pentyl]-2-pyrimidin-2-yl-4-(trifluoromethyl)-1,3-thiazole-5-carboxamide] belongs at most 2 µM.
Turning to `O=C(NCC1(c2cccnc2)CCCCC1)c1sc(-c2ncccn2)nc1C(F)(F)F` [Compound 161, N-[(1-pyridin-3-ylcyclohexyl)methyl]-2-pyrimidin-2-yl-4-(trifluoromethyl)-1,3-thiazole-5-carboxamide], the IC50 was at most 2 µM.
With `N[C@@H]1CCN(C2(CNC(=O)c3sc(-c4ncccn4)nc3C(F)(F)F)CCCCC2)C1` [Compound 162, N-({1-[(3R)-3-aminopyrrolidin-1-yl]cyclohexyl}methyl)-2-pyrimidin-2-yl-4-(trifluoromethyl)-1,3-thiazole-5-carboxamide], the IC50 was at most 2 µM.
As to `CC(C)CC(CNC(=O)c1sc(N2CC[C@@H](N(C)C)C2)nc1C(F)(F)F)c1ccc(C(F)(F)F)cc1` (stereo partly drawn) [Compound 163, 2-[(3R)-3-(dimethylamino)pyrrolidin-1-yl]-N-{4-methyl-2-[4-(trifluoromethyl)phenyl]pentyl}-4-(trifluoromethyl)-1,3-thiazole-5-carboxamide], the IC50 is at most 2 µM.
Next, `O=C(NCC1(c2cccnc2)CCCCC1)c1sc(-c2cccnc2)nc1C(F)(F)F` [Compound 164, 2-pyridin-3-yl-N-[(1-pyridin-3-ylcyclohexyl)methyl]-4-(trifluoromethyl)-1,3-thiazole-5-carboxamide]: at most 2 µM; `CC(C)CC(CNC(=O)c1sc(-c2cccnc2)nc1C(F)(F)F)c1ccc(C(F)(F)F)cc1` (stereo not drawn) [Compound 165, N-{4-methyl-2-[4-(trifluoromethyl)phenyl]pentyl}-2-pyridin-3-yl-4-(trifluoromethyl)-1,3-thiazole-5-carboxamide]: at most 2 µM.
On to `CCc1nc(-c2cccnc2)sc1C(=O)NCC1(c2cccnc2)CCCCC1` [Compound 166, 4-ethyl-2-pyridin-3-yl-N-[(1-pyridin-3-ylcyclohexyl)methyl]-1,3-thiazole-5-carboxamide], for which the IC50 was at most 2 µM.
